The results in this text go back to doi:10.1101/151233v4 (biorxiv, 2018).

This experiment addresses T1, truncated chicken MR (GAL4-DBD-MR-LBD) (Gallus gallus, UniProt C1KB84).
T1 sequence (C1KB84 729-986): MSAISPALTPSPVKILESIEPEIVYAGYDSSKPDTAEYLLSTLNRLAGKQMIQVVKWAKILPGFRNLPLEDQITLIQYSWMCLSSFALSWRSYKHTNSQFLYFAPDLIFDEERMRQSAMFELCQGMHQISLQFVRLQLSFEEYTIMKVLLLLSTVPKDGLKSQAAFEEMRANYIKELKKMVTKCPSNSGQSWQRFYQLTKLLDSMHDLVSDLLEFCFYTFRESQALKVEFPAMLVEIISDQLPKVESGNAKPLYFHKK
As to the kind of experiment: luciferase reporter transactivation in HEK293, GAL4-DBD fusion. Format: cell-based. On the technique in general: Reporter assays use an easily measured gene product as a stand-in for the process of interest.

By EC50 is commonly meant the concentration that produces a half-maximal response. Higher therefore signals lower potency in that assay. In the case of `C[C@]12CCC(=O)C=C1CC[C@@H]1[C@@H]2[C@@H](O)C[C@]2(C=O)[C@@H](C(=O)CO)CC[C@@H]12` [aldosterone], it took 0.13 nM to reach a half-maximal effect (EC50). Turning to `C[C@]12CCC(=O)C=C1CC[C@@H]1[C@@H]2[C@@H](O)C[C@@]2(C)[C@H]1CC[C@]2(O)C(=O)CO` [cortisol], a half-maximal effect (EC50) was put at 0.69 nM.
